ChEMBL document CHEMBL2073932, “Induction of human MDR1 gene expression by 2-acetylaminofluorene is mediated by effectors of the phosphoinositide 3-kinase pathway that activate NF-kappaB signaling” (Oncogene, 2002)

Key:
[1] = target: T1, ATP-dependent translocase ABCB1 (Homo sapiens, UniProt P08183); test: TP_TRANSPORTER: RNase protection assay in HepG2 cells; type: functional, cell-based
[2] = target: T1, ATP-dependent translocase ABCB1; test: TP_TRANSPORTER: RNase protection assay in embryonic 293 cells; type: functional, cell-based; conditions: hek293

T1 sequence (P08183 whole entry): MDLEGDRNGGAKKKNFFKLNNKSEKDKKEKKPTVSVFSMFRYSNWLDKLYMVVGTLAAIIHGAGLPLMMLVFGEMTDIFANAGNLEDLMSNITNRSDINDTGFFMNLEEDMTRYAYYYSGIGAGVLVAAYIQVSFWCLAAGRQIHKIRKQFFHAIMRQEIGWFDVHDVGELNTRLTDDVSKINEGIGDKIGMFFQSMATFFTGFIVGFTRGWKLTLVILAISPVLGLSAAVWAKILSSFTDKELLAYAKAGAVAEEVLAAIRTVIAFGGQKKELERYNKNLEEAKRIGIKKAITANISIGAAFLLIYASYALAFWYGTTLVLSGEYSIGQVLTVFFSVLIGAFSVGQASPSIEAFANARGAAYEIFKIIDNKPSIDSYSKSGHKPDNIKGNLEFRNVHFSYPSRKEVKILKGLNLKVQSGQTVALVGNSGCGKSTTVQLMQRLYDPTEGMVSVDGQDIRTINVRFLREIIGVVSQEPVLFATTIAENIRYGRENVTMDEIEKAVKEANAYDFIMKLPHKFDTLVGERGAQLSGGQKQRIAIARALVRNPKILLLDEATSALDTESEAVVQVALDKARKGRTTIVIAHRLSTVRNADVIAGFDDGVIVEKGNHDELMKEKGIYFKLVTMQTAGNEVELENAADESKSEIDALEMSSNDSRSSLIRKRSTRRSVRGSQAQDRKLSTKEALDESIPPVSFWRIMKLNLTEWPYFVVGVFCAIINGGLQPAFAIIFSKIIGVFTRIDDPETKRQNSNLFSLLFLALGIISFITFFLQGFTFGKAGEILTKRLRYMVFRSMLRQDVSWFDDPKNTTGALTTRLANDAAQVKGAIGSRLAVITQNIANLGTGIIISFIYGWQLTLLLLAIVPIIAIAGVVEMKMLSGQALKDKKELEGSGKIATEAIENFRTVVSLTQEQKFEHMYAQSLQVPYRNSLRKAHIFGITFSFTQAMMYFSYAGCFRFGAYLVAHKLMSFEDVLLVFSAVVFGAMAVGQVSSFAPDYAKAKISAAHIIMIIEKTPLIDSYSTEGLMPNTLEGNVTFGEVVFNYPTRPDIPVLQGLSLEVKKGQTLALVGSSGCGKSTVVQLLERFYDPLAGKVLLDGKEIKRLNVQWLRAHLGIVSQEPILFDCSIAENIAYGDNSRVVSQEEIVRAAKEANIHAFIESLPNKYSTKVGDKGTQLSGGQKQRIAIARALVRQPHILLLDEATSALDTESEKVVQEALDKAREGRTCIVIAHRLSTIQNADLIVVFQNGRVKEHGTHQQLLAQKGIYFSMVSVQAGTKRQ

**Q.** What does the source list for `CC(=O)Nc1ccc2c(c1)Cc1ccccc1-2` [2-ACETYLAMINOFLUORENE]?
**A.** Activity [1]: inducer [+]; Activity [2]: inducer [+]
